Like-named read-outs stand apart in the source and are kept apart here.
Tested on: MCH receptors
Assay: MCH receptor activity class (method not given)
[1] = class 1-3 by percent of control at 10^-7 M or IC50
[2] = class by percent of control at 10^-7 M or IC50
[3] = MCH receptor, class by percent of control at 10^-7 M or IC50
[4] = activity class per percent of control at 10^-7 M or IC50
[5] = activity class 1-3: percent of control at 10^-7 M or IC50
[6] = MCH receptor activity class 1-3 (percent of control at 10^-7 M or IC50)
[7] = class by percent of control at 10^−7 M or IC50

Q: How did the class [1] turn out when `CN(C)c1nc(N[C@H]2CC[C@@H](NC(=O)c3cc(F)c(F)c(F)c3F)CC2)nc2c1CCCC2` [compound 564] was run?
A: 3 (Class 3 The value of percent of control at 10^−7 M was more than 60% or the value of IC50 was more than 200 nM.)

Q: How did the class [1] turn out when `Cc1cc(C(=O)NC[C@H]2CC[C@@H](Nc3nccc(N(C)C)n3)CC2)c(C)o1` [compound 416] was run?
A: 3 (Class 3 The value of percent of control at 10^−7 M was more than 60% or the value of IC50 was more than 200 nM.)

Q: Which class [2] does the source give for `CN(C)c1cc(N[C@H]2CC[C@@H](CNCc3ccccc3OC(F)F)CC2)nc2ccccc12` [compound 1172] here?
A: 3 (Class 3 The value of percent of control at 10^−7 M was more than 60% or the value of IC50 was more than 200 nM.)

Q: With `Cc1ccc(NC(=S)N[C@H]2CC[C@@H](Nc3nc4c(c(N(C)C)n3)CCCC4)CC2)cc1Cl` [compound 2010] as the compound, how does the class [3] read?
A: 3 (Class 3 The value of percent of control at 10^−7 M was more than 60% or the value of IC50 was more than 200 nM.)

Q: Which class [3] does the source give for `CNC(=S)N[C@H]1CC[C@@H](Nc2nc3c(c(N(C)C)n2)CCCC3)CC1` [compound 1951] here?
A: 3 (Class 3 The value of percent of control at 10^−7 M was more than 60% or the value of IC50 was more than 200 nM.)

Q: `Cc1cccc(C(C)C)c1NC(=O)N[C@H]1CC[C@@H](Nc2nccc(N(C)C)n2)CC1` [compound 2199] was tested. Which class [2] did it give?
A: 3 (Class 3 The value of percent of control at 10^−7 M was more than 60% or the value of IC50 was more than 200 nM.)

Q: Which class [3] does the source give for `CN(C)c1cc(N[C@H]2CC[C@@H](NC(=O)c3sc(Cl)c(Cl)c3Cl)CC2)nc2ccccc12` [compound 132] here?
A: 3 (Class 3 The value of percent of control at 10^−7 M was more than 60% or the value of IC50 was more than 200 nM.)

Q: Which class does the source give for `Cc1cc(N[C@H]2CC[C@@H](NC(=O)Nc3cccc(Oc4ccccc4)c3)CC2)nc2ccccc12` [Example 2560, N-{cis-4-[(4-methylquinolin-2-yl)amino]cyclohexyl}-N′-(3-phenoxyphenyl)urea] here?
A: 2

Q: How did the class [3] turn out when `CN(C)c1cc(N[C@H]2CC[C@@H](NC(=O)Cc3ccc(F)cc3)CC2)nc2ccccc12` [compound 68] was run?
A: 3 (Class 3 The value of percent of control at 10^−7 M was more than 60% or the value of IC50 was more than 200 nM.)

Q: With `CN(C)c1cc(N[C@H]2CC[C@@H](CNC(=O)CC3CCCC3)CC2)nc2ccccc12` [compound 202] as the compound, how does the class [3] read?
A: 3 (Class 3 The value of percent of control at 10^−7 M was more than 60% or the value of IC50 was more than 200 nM.)

Q: Which class [4] does the source give for `COC(=O)c1ccccc1Sc1nc2sccn2c1CN[C@H]1CC[C@@H](Nc2cc(N(C)C)c3ccccc3n2)CC1` [compound 1116] here?
A: 3 (Class 3 The value of percent of control at 10^−7 M was more than 60% or the value of IC50 was more than 200 nM.)

Q: Which class [2] does the source give for `CN(C)c1nc(N[C@H]2CC[C@@H](NC(=O)Nc3ccc(Cl)c(Cl)c3)CC2)nc2c1CCCC2` [compound 1818] here?
A: 3 (Class 3 The value of percent of control at 10^−7 M was more than 60% or the value of IC50 was more than 200 nM.)

Q: Which class [3] does the source give for `CN(C)c1cc(N[C@H]2CC[C@@H](NC(=O)c3cc4ccccc4s3)CC2)nc2ccccc12` [compound 94] here?
A: 3 (Class 3 The value of percent of control at 10^−7 M was more than 60% or the value of IC50 was more than 200 nM.)

Q: Which class [5] does the source give for `CN(C)c1nc(N[C@H]2CC[C@@H](NC(=O)Oc3ccc4ccccc4c3)CC2)nc2c1CCCC2` [compound 1589] here?
A: 3 (Class 3 The value of percent of control at 10^−7 M was more than 60% or the value of IC50 was more than 200 nM.)

Q: Which class [2] does the source give for `COc1cc(OC)c(NC(=O)N[C@H]2CC[C@@H](Nc3cc(N(C)C)c4ccccc4n3)CC2)cc1Cl` [compound 2157, N-(5-chloro-2,4-dimethoxyphenyl)-N′-(cis-4-{[4-(dimethylamino)quinolin-2-yl]amino}cyclohexyl)urea] here?
A: 1 (Class 1: The value of percent of control at 10^−7 M was less than 40% or the value of IC50 was less than 50 nM.)

Q: `CN(C)c1ccnc(N[C@H]2CC[C@@H](CNC(=O)Nc3ccccc3I)CC2)n1` [compound 2424] was tested. Which class [6] did it give?
A: 3 (Class 3 The value of percent of control at 10^−7 M was more than 60% or the value of IC50 was more than 200 nM.)

Q: Which class [6] does the source give for `CN(C)c1ccnc(N[C@H]2CC[C@@H](CNC(=O)Nc3ccc(F)c(Cl)c3)CC2)n1` [compound 2450, N-(3-chloro-4-fluorophenyl)-N′-[(cis-4-{[4-(dimethylamino)pyrimidin-2-yl]amino}cyclohexyl)methyl]urea] here?
A: 1 (Class 1: The value of percent of control at 10^−7 M was less than 40% or the value of IC50 was less than 50 nM.)

Q: `Cc1cc(Br)cc(C)c1NC(=O)NC[C@H]1CC[C@@H](Nc2cc(N(C)C)c3ccccc3n2)CC1` [compound 2390, N-(4-bromo-2,6-dimethylphenyl)-N′-[(cis-4-{[4-(dimethylamino)quinolin-2-yl]amino}cyclohexyl)methyl]urea] was tested. Which class [6] did it give?
A: 1 (Class 1: The value of percent of control at 10^−7 M was less than 40% or the value of IC50 was less than 50 nM.)

Q: For `CN(C)c1cc(N[C@H]2CC[C@@H](NC(=O)Oc3cccc(C(F)(F)F)c3)CC2)nc2ccccc12` [compound 1542], which class [5] is on record?
A: 3 (Class 3 The value of percent of control at 10^−7 M was more than 60% or the value of IC50 was more than 200 nM.)

Q: `CCCc1ccccc1NC(=O)NC[C@H]1CC[C@@H](Nc2cc(N(C)C)c3ccccc3n2)CC1` [compound 2382] was tested. Which class [6] did it give?
A: 3 (Class 3 The value of percent of control at 10^−7 M was more than 60% or the value of IC50 was more than 200 nM.)

Q: For `Cc1ccccc1C(=O)N[C@H]1CC[C@@H](Nc2ncc(C)c(N(C)C)n2)CC1` [compound 2917], which class [7] is on record?
A: 3 (Class 3 The value of percent of control at 10^−7 M was more than 60% or the value of IC50 was more than 200 nM.)

Q: For `CN(C)c1nc(N[C@H]2CC[C@@H](NC(=S)Nc3ccc([N+](=O)[O-])cc3)CC2)nc2c1CCCC2` [compound 1953], which class [3] is on record?
A: 3 (Class 3 The value of percent of control at 10^−7 M was more than 60% or the value of IC50 was more than 200 nM.)

Q: How did the class [7] turn out when `Cc1nc(N[C@H]2CC[C@@H](NC(=O)c3ccc(Cl)cc3)CC2)nc(N(C)C)c1C` [compound 2847, 4-chloro-N-(cis-4-{[4-(dimethylamino)-5,6-dimethylpyrimidin-2-yl]amino}cyclohexyl)benzamide] was run?
A: 1 (Class 1: The value of percent of control at 10^−7 M was less than 40% or the value of IC50 was less than 50 nM.)

Q: For `CC(C)CNC(=S)N[C@H]1CC[C@@H](Nc2nc3c(c(N(C)C)n2)CCCC3)CC1` [compound 1944], which class [3] is on record?
A: 3 (Class 3 The value of percent of control at 10^−7 M was more than 60% or the value of IC50 was more than 200 nM.)

Q: With `CSc1sc(C(=O)N[C@H]2CC[C@@H](Nc3nc4c(c(N(C)C)n3)CCCC4)CC2)c(Cl)c1S(=O)(=O)C(C)C` [compound 1041] as the compound, how does the class [4] read?
A: 3 (Class 3 The value of percent of control at 10^−7 M was more than 60% or the value of IC50 was more than 200 nM.)

Q: With `CN(C)c1ccnc(N[C@H]2CC[C@@H](CNC(=O)Cc3ccccc3)CC2)n1` [compound 390] as the compound, how does the class [2] read?
A: 3 (Class 3 The value of percent of control at 10^−7 M was more than 60% or the value of IC50 was more than 200 nM.)

Q: For `COc1cccc(OC)c1CN[C@H]1CC[C@@H](Nc2nc3c(c(N(C)C)n2)CCCC3)CC1` [compound 1326], which class [2] is on record?
A: 3 (Class 3 The value of percent of control at 10^−7 M was more than 60% or the value of IC50 was more than 200 nM.)

Q: With `CN(C)c1cc(N[C@H]2CC[C@@H](CNCc3cc(Cl)cc(Br)c3O)CC2)nc2ccccc12` [compound 1162] as the compound, how does the class [2] read?
A: 3 (Class 3 The value of percent of control at 10^−7 M was more than 60% or the value of IC50 was more than 200 nM.)

Q: Which class [3] does the source give for `CN(C)c1cc(N[C@H]2CC[C@@H](CNC(=O)c3cccc(C#N)c3)CC2)nc2ccccc12` [compound 156] here?
A: 3 (Class 3 The value of percent of control at 10^−7 M was more than 60% or the value of IC50 was more than 200 nM.)

Q: Which class [2] does the source give for `CN(C)c1nc(N[C@H]2CC[C@@H](CNC(=O)c3c(Cl)cc(Cl)cc3Cl)CC2)nc2c1CCCC2` [compound 668, 2,4,6-trichloro-N-[(cis-4-{[4-(dimethylamino)-5,6,7,8-tetrahydroquinazolin-2-yl]amino}cyclohexyl)methyl]benzamide] here?
A: 1 (Class 1: The value of percent of control at 10^−7 M was less than 40% or the value of IC50 was less than 50 nM.)

Q: With `Cc1ccc(-c2ccc(C(=O)NC[C@H]3CC[C@@H](Nc4cc(N(C)C)c5ccccc5n4)CC3)o2)c([N+](=O)[O-])c1` [compound 801] as the compound, how does the class [2] read?
A: 3 (Class 3 The value of percent of control at 10^−7 M was more than 60% or the value of IC50 was more than 200 nM.)

Q: `CN(C)c1nc(N[C@H]2CC[C@@H](NC(=O)Oc3ccc(Br)cc3)CC2)nc2c1CCCC2` [compound 1583] was tested. Which class [5] did it give?
A: 3 (Class 3 The value of percent of control at 10^−7 M was more than 60% or the value of IC50 was more than 200 nM.)

Q: Which class [5] does the source give for `CCCCCCCCOC(=O)N[C@H]1CC[C@@H](Nc2cc(N(C)C)c3ccccc3n2)CC1` [compound 1546] here?
A: 3 (Class 3 The value of percent of control at 10^−7 M was more than 60% or the value of IC50 was more than 200 nM.)

Q: For `CN(C)c1nc(N[C@H]2CC[C@@H](NC(=O)c3ccc(SC(F)(F)F)cc3)CC2)nc2c1CCCC2` [compound 567], which class [1] is on record?
A: 3 (Class 3 The value of percent of control at 10^−7 M was more than 60% or the value of IC50 was more than 200 nM.)

Q: Which class [6] does the source give for `COc1cc(OC)c(NC(=S)N[C@H]2CC[C@@H](Nc3nccc(N(C)C)n3)CC2)cc1Cl` [compound 2342] here?
A: 1 (Class 1: The value of percent of control at 10^−7 M was less than 40% or the value of IC50 was less than 50 nM.)

Q: Which class [2] does the source give for `CN(C)c1nc(N[C@H]2CC[C@@H](NC(=O)Nc3ccc(Cl)cc3Cl)CC2)nc2c1CCCC2` [compound 1819] here?
A: 3 (Class 3 The value of percent of control at 10^−7 M was more than 60% or the value of IC50 was more than 200 nM.)

Q: For `CN(C)c1nc(N[C@H]2CC[C@@H](NC(=O)c3cccc(-n4c(-c5ccc(Br)cc5)cc5c4CC(C)(C)CC5=O)c3)CC2)nc2c1CCCC2` [compound 995], which class [4] is on record?
A: 3 (Class 3 The value of percent of control at 10^−7 M was more than 60% or the value of IC50 was more than 200 nM.)

Q: For `CN(C)c1cc(N[C@H]2CC[C@@H](CNC(=O)C(c3ccc(Cl)cc3)c3ccc(Cl)cc3)CC2)nc2ccccc12` [compound 800, 2,2-bis(4-chlorophenyl)-N-[(cis-4-{[4-(dimethylamino)quinolin-2-yl]amino}cyclohexyl)methyl]acetamide], which class [2] is on record?
A: 3 (Class 3 The value of percent of control at 10^−7 M was more than 60% or the value of IC50 was more than 200 nM.)
